Experimental findings from ChEMBL document CHEMBL5346903, “Discovery of novel and bioavailable histone deacetylases and cyclin-dependent kinases dual inhibitor to impair the stemness of leukemia cells” (Eur J Med Chem, 2023) are described below.

The target in one data set is Histone deacetylase 7 (Homo sapiens, UniProt Q8WUI4). Put plainly: Inhibition of recombinant human HDAC7 using HDAC substrate incubated for 30 mins by fluorescence based assay.
The target of data set [1] is CDK3/Cyclin E (Homo sapiens) (UniProt P24864+Q00526). Kind of data set: Inhibition of CDK3/cyclinE1 (unknown origin) at 100 nM preincubated for 20 mins followed by [gamma-33P]ATP addition measured after 120 mins in presence of ATP by Hot-SpotSM kinase assay relative to control. It counts as protein-complex assay. Conditions: time 140.0 min.
Data set [2] addresses Cyclin-dependent kinase 4/cyclin D1 (Homo sapiens) (UniProt P11802+P24385). Put plainly: Inhibition of CDK4/cyclinD1 (unknown origin) at 100 nM preincubated for 20 mins followed by [gamma-33P]ATP addition measured after 120 mins in presence of ATP by Hot-SpotSM kinase assay relative to control. The conditions noted are these: time 140.0 min. It counts as protein-complex assay.

Data set [3] concerns the target CDK12/Cyclin K (Homo sapiens) (UniProt O75909+Q9NYV4). Put plainly: Inhibition of CDK12/cyclinK (unknown origin) at 100 nM preincubated for 20 mins followed by [gamma-33P]ATP addition measured after 120 mins in presence of ATP by Hot-SpotSM kinase assay relative to control. It counts as protein-complex assay. Conditions: time 140.0 min.
Data set [4] addresses Cyclin-dependent kinase 13/Cyclin-K (Homo sapiens) (UniProt Q14004+O75909). Put plainly: Inhibition of CDK13/cyclinK (unknown origin) at 100 nM preincubated for 20 mins followed by [gamma-33P]ATP addition measured after 120 mins in presence of ATP by Hot-SpotSM kinase assay relative to control. It counts as protein-complex assay. The conditions noted are these: time 140.0 min.

Data set [5] deals with HL-60. Kind of data set: Downregulation of Pol-II S2 level in human HL-60 cells incubated for 6 hrs by Western blot analysis. The conditions noted are these: dose <= 1000.0 nM. It counts as functional, cell-based. (In general: A western blot detects proteins with antibodies after separation by electrophoresis.)
Data set [6] has as its system HL-60. Put plainly: Induction of apoptosis in human HL-60 cells assessed as viable cells at 2 uM incubated for 48 hrs by annexin V-FITC/PI satining based flow cytometry (reference value: 97.4 %). It counts as functional. Conditions: read-out: Activity. For orientation: A flow cytometer gives signals particle by particle.
In data set [7] the test system is HL-60. Put plainly: Induction of apoptosis in human HL-60 cells assessed as early apoptotic cells at 0.2 uM incubated for 48 hrs by annexin V-FITC/PI satining based flow cytometry (reference value: 1.24 %). It counts as functional.
In data set [8] the test system is HL-60. Kind of data set: Induction of apoptosis in human HL-60 cells assessed as necrotic cells at 0.5 uM incubated for 48 hrs by annexin V-FITC/PI satining based flow cytometry (reference value: 0.00 %). It counts as functional.
Data set [9] relates to U-937. Kind of data set: Induction of apoptosis in human U-937 cells assessed as viable cells at 0.5 uM incubated for 48 hrs by annexin V-FITC/PI satining based flow cytometry (reference value: 90.0 %). It counts as functional. The conditions noted are these: read-out: Activity.
Data set [10] deals with U-937. Kind of data set: Induction of apoptosis in human U-937 cells assessed as early apoptotic cells at 0.2 uM incubated for 48 hrs by annexin V-FITC/PI satining based flow cytometry (reference value: 0.945 %). It counts as functional.
The subject of data set [11] is HL-60. Kind of data set: Induction of differentiation in human HL-60 cells assessed as increase in CD11b positive cells at 0.5 uM incubated for 24 hrs by FITC staining based flow cytometry (reference value: 1.45 %). It counts as functional.
For data set [12], the system named is HL-60. Kind of data set: Induction of differentiation in human HL-60 cells assessed as increase in CD11b positive cells at 1.5 uM incubated for 24 hrs by FITC staining based flow cytometry (reference value: 1.45 %). It counts as functional.
For data set [13], the system named is U-937. Kind of data set: Induction of differentiation in human U-937 cells assessed as increase in CD11b positive cells at 0.5 uM incubated for 48 hrs by FITC staining based flow cytometry (reference value: 2.72 %). It counts as functional.
Data set [14] can be described thus: Cytotoxicity against human Kasumi 1 cells assessed as CD34positive CD38negative leukemic stem cell-like cells sub-population at 0.5 uM incubated for 24 hrs by APC/FITC satining based flow cytometry (reference value: 96.8 %). It counts as functional.
Data set [15] is described as follows: Cytotoxicity against human Kasumi 1 cells assessed as CD34positive CD38negative leukemic stem cell-like cells sub-population at 1 uM incubated for 24 hrs by APC/FITC satining based flow cytometry (reference value: 96.8 %). It counts as functional.
Data set [16] is described as follows: Tmax in Sprague-Dawley rat at 25 mg/kg, po measured upto 8 hrs by LC/MS-MS analysis. Conditions: in vivo. It counts as ADME, organism-based.
In data set [17] the target is Cyclin-dependent kinase 2/cyclin E1 (Homo sapiens) (UniProt P24864+P24941). Conditions: dose 100.0 nM, time 140.0 min.
Data set [18] concerns HL-60. Kind of data set: Induction of apoptosis in human HL-60 cells assessed as viable cells at 5 uM incubated for 48 hrs by annexin V-FITC/PI satining based flow cytometry (reference value: 94.7 %). It counts as functional. Conditions: read-out: Activity.
The test system of data set [19] is HL-60. Kind of data set: Induction of apoptosis in human HL-60 cells assessed as late apoptotic cells at 0.6 uM incubated for 48 hrs by annexin V-FITC/PI satining based flow cytometry (reference value: 2.83 %). It counts as functional.
The test system of data set [20] is HL-60. Put plainly: Induction of apoptosis in human HL-60 cells assessed as late apoptotic cells at 1.2 uM incubated for 48 hrs by annexin V-FITC/PI satining based flow cytometry (reference value: 2.83 %). It counts as functional.
In data set [21] the test system is HL-60. Kind of data set: Induction of apoptosis in human HL-60 cells assessed as late apoptotic cells at 5 uM incubated for 48 hrs by annexin V-FITC/PI satining based flow cytometry (reference value: 2.83 %). It counts as functional.
In data set [22] the test system is HL-60. Kind of data set: Induction of apoptosis in human HL-60 cells assessed as necrotic cells at 5 uM incubated for 48 hrs by annexin V-FITC/PI satining based flow cytometry (reference value: 0.04 %). It counts as functional.
The test system of data set [23] is U-937. Kind of data set: Induction of apoptosis in human U-937 cells assessed as viable cells at 1.2 uM incubated for 48 hrs by annexin V-FITC/PI satining based flow cytometry (reference value: 93.7 %). It counts as functional. Conditions: read-out: Activity.
Data set [24] has as its system U-937. Kind of data set: Induction of apoptosis in human U-937 cells assessed as early apoptotic cells at 1.2 uM incubated for 48 hrs by annexin V-FITC/PI satining based flow cytometry (reference value: 1.93 %). It counts as functional.
The test system of data set [25] is U-937. Put plainly: Induction of apoptosis in human U-937 cells assessed as late apoptotic cells at 2.5 uM incubated for 48 hrs by annexin V-FITC/PI satining based flow cytometry (reference value: 4.23 %). It counts as functional.
The subject of data set [26] is U-937. Kind of data set: Induction of apoptosis in human U-937 cells assessed as necrotic cells at 1.2 uM incubated for 48 hrs by annexin V-FITC/PI satining based flow cytometry (reference value: 0.102 %). It counts as functional.
Data set [27] relates to HL-60. Kind of data set: Induction of differentiation in human HL-60 cells assessed as increase in CD11b positive cells at 0.6 uM incubated for 24 hrs by FITC staining based flow cytometry (reference value: 1.12 %). It counts as functional.
Data set [28] relates to HL-60. Kind of data set: Induction of differentiation in human HL-60 cells assessed as increase in CD11b positive cells at 2.5 uM incubated for 24 hrs by FITC staining based flow cytometry (reference value: 1.12 %). It counts as functional.
Data set [29] relates to U-937. Kind of data set: Induction of differentiation in human U-937 cells assessed as increase in CD11b positive cells at 5 uM incubated for 48 hrs by FITC staining based flow cytometry (reference value: […] %). It counts as functional.
A further data set concerns Kasumi 1. Kind of data set: Cytotoxicity against human Kasumi 1 cells assessed as CD34positive CD38negative leukemic stem cell-like cells sub-population at 0.5 uM incubated for 24 hrs by APC/FITC satining based flow cytometry (reference value: 95.8 %). It counts as functional.

Sequence of Cyclin-dependent kinase 13/Cyclin-K (Homo sapiens) (O75909 whole entry, looked up): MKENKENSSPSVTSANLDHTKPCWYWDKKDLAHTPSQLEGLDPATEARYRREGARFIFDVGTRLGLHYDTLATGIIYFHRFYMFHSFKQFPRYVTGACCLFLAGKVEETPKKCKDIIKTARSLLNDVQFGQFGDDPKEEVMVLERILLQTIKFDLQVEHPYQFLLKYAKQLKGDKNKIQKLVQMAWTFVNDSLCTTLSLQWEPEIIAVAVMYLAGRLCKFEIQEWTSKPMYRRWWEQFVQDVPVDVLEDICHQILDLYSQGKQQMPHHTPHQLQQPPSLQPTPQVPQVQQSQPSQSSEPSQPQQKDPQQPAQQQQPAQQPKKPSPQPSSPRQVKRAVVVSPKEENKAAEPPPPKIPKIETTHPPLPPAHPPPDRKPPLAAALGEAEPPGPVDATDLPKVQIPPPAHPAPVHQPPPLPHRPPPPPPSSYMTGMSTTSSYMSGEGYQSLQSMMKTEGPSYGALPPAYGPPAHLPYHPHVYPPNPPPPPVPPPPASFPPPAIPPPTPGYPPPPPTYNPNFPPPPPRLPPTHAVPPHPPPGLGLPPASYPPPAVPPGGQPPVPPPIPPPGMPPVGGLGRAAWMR
Sequence of Cyclin-dependent kinase 13/Cyclin-K (Homo sapiens) (Q14004 whole entry, looked up): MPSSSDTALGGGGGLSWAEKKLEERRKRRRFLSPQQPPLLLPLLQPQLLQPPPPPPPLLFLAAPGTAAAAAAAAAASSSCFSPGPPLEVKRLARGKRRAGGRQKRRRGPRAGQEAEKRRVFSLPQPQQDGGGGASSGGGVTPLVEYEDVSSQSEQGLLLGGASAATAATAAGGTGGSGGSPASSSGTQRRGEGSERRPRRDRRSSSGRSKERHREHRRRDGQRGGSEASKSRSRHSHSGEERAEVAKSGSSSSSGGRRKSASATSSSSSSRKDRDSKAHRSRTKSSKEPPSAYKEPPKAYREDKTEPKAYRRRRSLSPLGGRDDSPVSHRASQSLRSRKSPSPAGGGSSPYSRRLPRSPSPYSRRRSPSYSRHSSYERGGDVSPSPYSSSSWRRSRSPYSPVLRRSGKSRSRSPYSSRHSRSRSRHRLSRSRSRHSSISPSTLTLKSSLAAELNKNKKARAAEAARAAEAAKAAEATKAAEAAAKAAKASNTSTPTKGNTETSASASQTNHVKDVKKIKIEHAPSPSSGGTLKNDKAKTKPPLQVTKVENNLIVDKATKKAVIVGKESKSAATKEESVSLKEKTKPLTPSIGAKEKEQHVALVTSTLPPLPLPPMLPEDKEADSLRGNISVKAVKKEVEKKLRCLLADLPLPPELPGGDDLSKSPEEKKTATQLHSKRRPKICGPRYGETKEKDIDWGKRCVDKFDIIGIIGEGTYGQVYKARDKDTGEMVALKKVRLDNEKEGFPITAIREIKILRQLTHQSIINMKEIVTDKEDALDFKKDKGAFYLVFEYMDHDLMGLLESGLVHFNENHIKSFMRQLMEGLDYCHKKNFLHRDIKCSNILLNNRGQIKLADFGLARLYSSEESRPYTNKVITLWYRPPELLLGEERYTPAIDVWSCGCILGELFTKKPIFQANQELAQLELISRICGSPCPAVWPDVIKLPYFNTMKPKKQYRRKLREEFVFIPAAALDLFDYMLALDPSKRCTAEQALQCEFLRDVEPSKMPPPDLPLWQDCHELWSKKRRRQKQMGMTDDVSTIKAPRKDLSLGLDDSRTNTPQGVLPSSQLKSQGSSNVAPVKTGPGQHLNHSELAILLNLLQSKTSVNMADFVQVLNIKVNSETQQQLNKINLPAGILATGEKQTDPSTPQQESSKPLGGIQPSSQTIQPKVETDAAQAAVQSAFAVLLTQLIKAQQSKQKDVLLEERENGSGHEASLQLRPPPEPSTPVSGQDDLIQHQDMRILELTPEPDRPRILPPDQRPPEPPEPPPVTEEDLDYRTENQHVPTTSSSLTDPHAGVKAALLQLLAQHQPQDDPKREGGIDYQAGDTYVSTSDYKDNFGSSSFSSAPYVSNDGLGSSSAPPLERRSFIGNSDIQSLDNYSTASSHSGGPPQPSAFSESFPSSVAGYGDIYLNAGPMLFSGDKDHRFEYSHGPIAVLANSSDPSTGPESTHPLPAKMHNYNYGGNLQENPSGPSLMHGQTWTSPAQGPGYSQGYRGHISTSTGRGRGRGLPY
Sequence of CDK12/Cyclin K (Homo sapiens) (O75909 whole entry, looked up): as the sequence (O75909 whole entry, looked up) above
Sequence of CDK12/Cyclin K (Homo sapiens) (Q9NYV4 whole entry, looked up): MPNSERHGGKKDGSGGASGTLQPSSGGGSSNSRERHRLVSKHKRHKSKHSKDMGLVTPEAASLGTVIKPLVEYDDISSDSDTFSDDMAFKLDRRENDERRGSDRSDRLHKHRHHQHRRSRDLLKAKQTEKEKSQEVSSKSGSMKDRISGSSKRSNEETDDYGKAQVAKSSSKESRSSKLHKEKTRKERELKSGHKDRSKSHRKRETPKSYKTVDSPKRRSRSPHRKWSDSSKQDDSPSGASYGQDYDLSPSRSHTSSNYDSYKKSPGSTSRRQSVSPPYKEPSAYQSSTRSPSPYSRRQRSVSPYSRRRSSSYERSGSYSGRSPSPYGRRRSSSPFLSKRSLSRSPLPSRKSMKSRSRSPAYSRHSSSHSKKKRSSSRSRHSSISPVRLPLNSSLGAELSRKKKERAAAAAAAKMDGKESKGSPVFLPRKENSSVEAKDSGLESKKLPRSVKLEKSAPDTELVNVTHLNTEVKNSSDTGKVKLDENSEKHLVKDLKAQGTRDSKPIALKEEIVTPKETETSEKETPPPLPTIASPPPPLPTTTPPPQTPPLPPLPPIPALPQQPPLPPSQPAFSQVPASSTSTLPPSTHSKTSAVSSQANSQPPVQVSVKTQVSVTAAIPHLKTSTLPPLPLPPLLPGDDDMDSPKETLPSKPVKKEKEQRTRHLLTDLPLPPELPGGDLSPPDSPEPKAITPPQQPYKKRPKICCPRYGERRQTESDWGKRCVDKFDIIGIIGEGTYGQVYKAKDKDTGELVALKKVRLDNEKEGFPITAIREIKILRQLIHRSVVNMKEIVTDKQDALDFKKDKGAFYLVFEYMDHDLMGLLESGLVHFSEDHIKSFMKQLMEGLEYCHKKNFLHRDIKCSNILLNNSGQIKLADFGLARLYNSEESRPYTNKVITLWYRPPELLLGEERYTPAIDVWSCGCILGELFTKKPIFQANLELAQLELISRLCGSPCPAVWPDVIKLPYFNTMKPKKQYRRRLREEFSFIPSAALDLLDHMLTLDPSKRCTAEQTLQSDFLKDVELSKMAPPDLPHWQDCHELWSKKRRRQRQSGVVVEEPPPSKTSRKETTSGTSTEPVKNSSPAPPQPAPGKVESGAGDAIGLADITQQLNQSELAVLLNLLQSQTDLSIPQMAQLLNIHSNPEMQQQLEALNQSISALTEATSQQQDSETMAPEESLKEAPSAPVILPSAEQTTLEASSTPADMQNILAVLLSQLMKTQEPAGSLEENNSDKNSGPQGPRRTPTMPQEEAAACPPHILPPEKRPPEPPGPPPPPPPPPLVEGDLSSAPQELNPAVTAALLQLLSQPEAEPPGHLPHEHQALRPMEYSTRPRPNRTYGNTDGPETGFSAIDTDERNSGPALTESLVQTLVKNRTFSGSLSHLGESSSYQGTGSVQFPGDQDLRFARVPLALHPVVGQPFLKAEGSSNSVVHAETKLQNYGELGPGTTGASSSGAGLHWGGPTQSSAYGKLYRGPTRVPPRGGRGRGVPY
Sequence of Histone deacetylase 7 (Q8WUI4 whole entry): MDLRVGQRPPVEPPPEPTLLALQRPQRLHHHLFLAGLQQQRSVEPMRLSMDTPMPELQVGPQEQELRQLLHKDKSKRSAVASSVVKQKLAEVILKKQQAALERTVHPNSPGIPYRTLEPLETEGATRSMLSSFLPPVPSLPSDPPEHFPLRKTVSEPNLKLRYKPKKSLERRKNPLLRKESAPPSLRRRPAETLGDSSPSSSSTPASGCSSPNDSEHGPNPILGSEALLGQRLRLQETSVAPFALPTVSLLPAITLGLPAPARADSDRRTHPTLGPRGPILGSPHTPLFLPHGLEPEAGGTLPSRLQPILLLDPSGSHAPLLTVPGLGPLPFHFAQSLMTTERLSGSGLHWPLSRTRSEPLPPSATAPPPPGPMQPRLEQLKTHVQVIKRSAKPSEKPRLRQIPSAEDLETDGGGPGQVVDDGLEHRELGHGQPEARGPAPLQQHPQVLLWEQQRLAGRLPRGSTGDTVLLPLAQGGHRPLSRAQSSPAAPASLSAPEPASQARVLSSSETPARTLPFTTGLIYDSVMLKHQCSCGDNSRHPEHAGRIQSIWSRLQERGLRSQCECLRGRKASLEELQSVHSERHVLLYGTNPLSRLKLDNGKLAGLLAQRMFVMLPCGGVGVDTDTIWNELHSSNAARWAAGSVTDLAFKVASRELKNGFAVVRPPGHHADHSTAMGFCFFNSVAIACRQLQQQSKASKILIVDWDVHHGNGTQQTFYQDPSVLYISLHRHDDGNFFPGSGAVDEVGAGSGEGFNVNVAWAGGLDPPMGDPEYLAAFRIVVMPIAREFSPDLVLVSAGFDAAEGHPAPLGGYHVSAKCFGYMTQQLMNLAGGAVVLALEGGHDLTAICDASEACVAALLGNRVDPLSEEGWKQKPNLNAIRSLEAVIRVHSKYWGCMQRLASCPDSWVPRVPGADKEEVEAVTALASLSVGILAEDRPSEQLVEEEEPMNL

For `Nc1ccccc1NC(=O)c1ccc(NC(=O)c2n[nH]cc2NC(=O)c2c(Cl)cccc2Cl)cc1`, on Histone deacetylase 7, the IC50 is over 1 µM. In addition, the inhibition in data set [1] worked out at 36.3%; in data set [2], 53.7%; in data set [3] it was 98.8%; in data set [4], 100%; in data set [17] it was 57.5%. Moreover, the Activity result is “Dose-Dependent Effect” in the data set with HL-60 [5]; 1.61% with HL-60 [7]; 0.01% with HL-60 [8]; 1.56% with U-937 [10]; 6.09% with HL-60 [11]; 50.9% with HL-60 [12]. Moreover, the Activity in the data set on U-937 [13] was found to be 3.96%; in [14] it was 45.4%; in [15] it was 35.3%. Further, the viability at 2 µM in the data set on HL-60 [6] turned out to be 5.25%. The viability at 0.5 µM with U-937 [9] was found to be 79.8%. In addition, in [16], the time to peak (Tmax) stood at 45 min.

Regarding `Nc1cc(F)ccc1NC(=O)c1ccc(CNC(=O)/C=C/c2cccnc2)cc1` [TUCIDINOSTAT], in the data set with HL-60 [18], the viability at 5 µM worked out at 18.1%. For the same compound, the Activity is recorded as 2.27% in the data set on HL-60 [19]; 11.5% with HL-60 [20]; 73.4% with HL-60 [21]; 0.353% with HL-60 [22]; 2.74% in the data set with U-937 [24]; 9.77% in the data set on U-937 [25]. Moreover, the Activity is 0.142% with U-937 [26]; 24.4% in the data set on HL-60 [27]; 53.5% with HL-60 [28]; 5.7% in the data set on U-937 [29]; 93.9% in the data set on Kasumi 1. Also, in the data set with U-937 [23], the viability at 1.2 µM was 90.3%.

As a reminder, the IC50 is the concentration at which inhibition is half-maximal. Usually inhibition stands for the drop in the measured response relative to a control, in per cent. As a reminder, the Tmax is the time at which the peak concentration occurs.
